Experimental data as given in US8822517B2, “Arylosulfonamides for the treatment of CNS diseases” (Adamed SP. Z O.O., priority 2010, dated 2014).

Assays:
[1] = molecular target: T1, serotonine transporter (SERT) receptor (Homo sapiens, UniProt P31645); assay: Binding assay SERT (h), [3H]imipramine, CHO cells; settings: read-out: SERT [%]
T1 construct: expressed in transfected cells; host or cells: CHO cells
Outline: (§1)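 Compounds were screened at 1×10^−6 M, and bound radioactivity was measured by scintillation counting. Specific binding equals total binding minus nonspecific binding obtained with an excess of unlabelled ligand.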

dopaminergic D2 receptor = dopaminergic D2 receptor (Homo sapiens, UniProt P14416); assay: Cellular functional assay, dopaminergic D2 receptor (agonism/antagonism); type: cell-based; settings: HEK293; for activation at 1 µM: agonist effect, percent of control specific agonist response (3 μM dopamine for control), 1×10^−6 M, D2S (h), HEK-293 cells, read-out: D2-ag [%]; for inhibition at 1 µM: read-out: D2-antag. [%]
Chain of dopaminergic D2 receptor (P14416 whole entry): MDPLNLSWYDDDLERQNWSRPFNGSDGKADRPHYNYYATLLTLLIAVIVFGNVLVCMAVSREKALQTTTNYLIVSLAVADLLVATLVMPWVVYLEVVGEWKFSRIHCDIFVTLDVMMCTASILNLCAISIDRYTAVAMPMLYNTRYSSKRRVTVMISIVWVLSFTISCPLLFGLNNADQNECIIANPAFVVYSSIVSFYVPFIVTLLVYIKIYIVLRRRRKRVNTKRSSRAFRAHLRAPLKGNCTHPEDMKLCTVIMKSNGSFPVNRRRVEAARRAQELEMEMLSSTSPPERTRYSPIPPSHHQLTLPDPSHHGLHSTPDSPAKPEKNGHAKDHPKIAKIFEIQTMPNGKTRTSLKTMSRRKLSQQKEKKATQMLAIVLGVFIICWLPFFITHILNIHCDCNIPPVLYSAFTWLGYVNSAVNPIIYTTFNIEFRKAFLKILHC
Experimental: (§2) The compounds were tested at the concentration of 1×10^−6M.
(§3) In the Tables ag refers to agonism, and antag to antagonism).

dopaminergic D3 receptor [2] = molecular target: T2, dopaminergic D3 receptor (Homo sapiens, UniProt P35462); assay: Cellular functional assay, dopaminergic D3 receptor (agonism/antagonism); type: cell-based; settings: for inhibition at 1 µM: CHO, read-out: D3-antag. [%]; for activation at 1 µM: agonist effect, percent of control specific agonist response (300 nM dopamine for control), 1×10^−6 M, D3 (h), CHO cells, read-out: D3-ag [%]
T2 sequence (P35462 whole entry): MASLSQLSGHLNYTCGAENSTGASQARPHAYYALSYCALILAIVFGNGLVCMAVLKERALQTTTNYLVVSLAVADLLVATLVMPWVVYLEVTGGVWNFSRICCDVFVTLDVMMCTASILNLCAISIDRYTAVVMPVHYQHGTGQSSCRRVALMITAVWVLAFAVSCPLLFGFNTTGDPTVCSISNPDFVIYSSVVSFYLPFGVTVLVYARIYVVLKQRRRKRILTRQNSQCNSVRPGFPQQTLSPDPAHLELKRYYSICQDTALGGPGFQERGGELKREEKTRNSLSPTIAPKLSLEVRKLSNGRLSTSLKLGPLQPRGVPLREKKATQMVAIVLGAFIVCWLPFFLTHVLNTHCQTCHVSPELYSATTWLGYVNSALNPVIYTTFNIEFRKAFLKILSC
Experimental: as §2, §3

adrenergic α1A receptor = molecular target: T3, adrenergic α1A receptor (Homo sapiens, UniProt P35348); assay: Cellular functional assay, adrenergic α1A receptor (agonism/antagonism); type: cell-based; settings: for activation at 1 µM: agonist effect, percent of control specific agonist response, compounds tested at 1×10^−6M, read-out: α1A -ag [%]; for inhibition at 1 µM: read-out: α1A -antag. [%]
T3 sequence (P35348 1-466): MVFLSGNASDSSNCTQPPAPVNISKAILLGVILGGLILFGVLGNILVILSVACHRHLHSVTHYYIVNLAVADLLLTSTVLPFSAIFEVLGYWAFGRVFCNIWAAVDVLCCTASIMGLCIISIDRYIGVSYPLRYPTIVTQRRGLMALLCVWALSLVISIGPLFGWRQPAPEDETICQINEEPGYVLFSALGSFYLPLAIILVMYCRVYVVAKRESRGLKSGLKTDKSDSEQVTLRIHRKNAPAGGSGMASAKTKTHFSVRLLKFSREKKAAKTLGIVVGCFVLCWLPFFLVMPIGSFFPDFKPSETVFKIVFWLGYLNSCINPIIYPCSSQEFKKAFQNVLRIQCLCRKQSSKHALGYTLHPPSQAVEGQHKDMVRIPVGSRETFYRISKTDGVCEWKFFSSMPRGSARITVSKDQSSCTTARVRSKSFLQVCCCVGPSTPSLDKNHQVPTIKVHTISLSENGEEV
Outline: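 Human receptors tested in cell-based functional format for both agonist and antagonist modes. Single compound concentration of 1×10^−6M.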

adrenergic α2C receptor = molecular target: T4, adrenergic α2C receptor (Homo sapiens, UniProt P18825); assay: Cellular functional assay, adrenergic α2C receptor (agonism/antagonism); type: cell-based; settings: for activation at 1 µM: agonist effect, percent of control specific agonist response, compounds tested at 1×10^−6M, read-out: α2C −ag [%]; for inhibition at 1 µM: read-out: α2C −antag. [%]
T4 sequence (P18825 1-462): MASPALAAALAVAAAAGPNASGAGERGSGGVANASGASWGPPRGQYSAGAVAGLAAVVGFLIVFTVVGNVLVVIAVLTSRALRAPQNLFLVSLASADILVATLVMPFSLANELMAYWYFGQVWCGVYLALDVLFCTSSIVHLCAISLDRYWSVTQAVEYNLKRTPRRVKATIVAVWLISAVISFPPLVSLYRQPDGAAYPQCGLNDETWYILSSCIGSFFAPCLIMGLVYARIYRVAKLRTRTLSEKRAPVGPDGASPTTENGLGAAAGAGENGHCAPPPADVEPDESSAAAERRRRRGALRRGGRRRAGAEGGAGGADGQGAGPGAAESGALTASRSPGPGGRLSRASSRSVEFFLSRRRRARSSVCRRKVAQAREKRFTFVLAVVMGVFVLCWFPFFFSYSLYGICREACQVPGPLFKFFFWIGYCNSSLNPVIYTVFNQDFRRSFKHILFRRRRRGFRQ
Experimental: as §2, §3

[3] = molecular target: T5, histaminergic H1 receptor (Homo sapiens, UniProt P35367); assay: Cellular functional assay, histaminergic H1 receptor (agonism/antagonism); type: cell-based; settings: for activation at 1 µM: agonist effect, percent of control specific agonist response, compounds tested at 1×10^−6M, read-out: H1 -ag [%]; for inhibition at 1 µM: read-out: H1 -antag. [%]
T5 sequence (P35367 whole entry): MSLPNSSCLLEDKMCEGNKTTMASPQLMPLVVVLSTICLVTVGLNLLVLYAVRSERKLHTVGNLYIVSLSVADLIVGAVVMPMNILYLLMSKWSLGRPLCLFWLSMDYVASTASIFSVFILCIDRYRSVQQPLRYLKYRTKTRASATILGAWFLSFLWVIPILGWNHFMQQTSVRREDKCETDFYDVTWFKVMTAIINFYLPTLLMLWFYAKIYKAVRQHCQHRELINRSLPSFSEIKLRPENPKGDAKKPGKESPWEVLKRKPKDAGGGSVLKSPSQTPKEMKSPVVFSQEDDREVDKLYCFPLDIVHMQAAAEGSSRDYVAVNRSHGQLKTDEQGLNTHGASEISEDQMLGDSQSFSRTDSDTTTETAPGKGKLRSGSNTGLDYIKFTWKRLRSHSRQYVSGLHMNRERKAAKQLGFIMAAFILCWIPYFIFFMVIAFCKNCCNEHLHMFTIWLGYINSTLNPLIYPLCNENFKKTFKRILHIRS
Experimental: as §2, §3

dopaminergic D3 receptor [4] = molecular target: T2, dopaminergic D3 receptor; assay: Binding assay D3 (h), [3H]methyl-spiperone, CHO cells; parameters: expressed in transfected cells; host or cells: CHO cells; settings: read-out: D3 [%]
Outline: as §1

[5] = molecular target: T6, serotoninergic 5-HT1A receptor (Homo sapiens, UniProt P08908); assay: Binding assay 5-HT1A (h), [3H]8-OH-DPAT, HEK-293 cells; parameters: expressed in transfected cells; host or cells: HEK-293 cells; settings: read-out: 5-HT1A
T6 sequence (P08908 1-422): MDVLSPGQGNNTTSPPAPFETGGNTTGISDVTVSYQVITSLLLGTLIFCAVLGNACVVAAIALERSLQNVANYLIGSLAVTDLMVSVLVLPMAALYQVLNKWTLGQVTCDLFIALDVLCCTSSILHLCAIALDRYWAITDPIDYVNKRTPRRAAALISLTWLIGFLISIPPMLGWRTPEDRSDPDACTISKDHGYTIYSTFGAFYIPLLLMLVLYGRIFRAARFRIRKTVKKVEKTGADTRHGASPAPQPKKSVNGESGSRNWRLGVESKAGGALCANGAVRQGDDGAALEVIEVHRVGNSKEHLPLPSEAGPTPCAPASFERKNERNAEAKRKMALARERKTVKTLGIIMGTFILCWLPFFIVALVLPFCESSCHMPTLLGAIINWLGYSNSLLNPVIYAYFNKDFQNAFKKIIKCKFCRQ
Outline: as §1

[6] = molecular target: T5, histaminergic H1 receptor; assay: Binding assay H1 (h), [3H]pyrilamine, HEK-293 cells; parameters: expressed in transfected cells; host or cells: HEK-293 cells; settings: read-out: H1 [%]
Outline: as §1

T1 sequence (P31645 whole entry): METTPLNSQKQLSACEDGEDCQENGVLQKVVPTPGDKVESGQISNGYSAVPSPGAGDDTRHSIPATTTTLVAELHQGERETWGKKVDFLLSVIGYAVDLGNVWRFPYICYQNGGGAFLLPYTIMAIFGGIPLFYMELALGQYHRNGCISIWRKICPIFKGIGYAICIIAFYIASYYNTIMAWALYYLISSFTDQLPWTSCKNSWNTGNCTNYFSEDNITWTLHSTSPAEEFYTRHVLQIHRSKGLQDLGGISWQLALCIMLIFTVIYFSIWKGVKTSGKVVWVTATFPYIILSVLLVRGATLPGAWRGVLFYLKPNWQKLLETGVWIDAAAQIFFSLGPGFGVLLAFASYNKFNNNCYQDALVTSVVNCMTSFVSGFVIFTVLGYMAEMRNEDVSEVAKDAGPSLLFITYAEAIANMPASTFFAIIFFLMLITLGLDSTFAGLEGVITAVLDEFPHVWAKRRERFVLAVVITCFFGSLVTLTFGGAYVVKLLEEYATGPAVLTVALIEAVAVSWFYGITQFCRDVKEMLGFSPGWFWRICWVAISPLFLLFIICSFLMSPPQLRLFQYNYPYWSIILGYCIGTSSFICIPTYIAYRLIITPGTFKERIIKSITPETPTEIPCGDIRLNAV

| Compound | inhibition at 1 µM [1] | activation at 1 µM (dopaminergic D2 receptor) | inhibition at 1 µM (dopaminergic D2 receptor) | inhibition at 1 µM (dopaminergic D3 receptor [2]) | activation at 1 µM (dopaminergic D3 receptor [2]) | activation at 1 µM (adrenergic α1A receptor) | inhibition at 1 µM (adrenergic α1A receptor) | activation at 1 µM (adrenergic α2C receptor) | inhibition at 1 µM (adrenergic α2C receptor) | activation at 1 µM [3] | inhibition at 1 µM [3] | inhibition at 1 µM (dopaminergic D3 receptor [4]) | inhibition at 1 µM [5] | inhibition at 1 µM [6] |
| --- | --- | --- | --- | --- | --- | --- | --- | --- | --- | --- | --- | --- | --- | --- |
| O=S(=O)(NCCCCN1CCN(c2noc3ccccc23)CC1)c1cc2ccc(Cl)cc2s1 [Compound 288, N-[4-[4-(1,2-Benzoxazol-3-yl)piperazin-1-yl]butyl]-6-chlorobenzothiophene-2-sulphonamide] | -14% | 5% | 79% | 72% | 0% | 0% | 97% | 1% | 13% | 0% | 57% | 102% | 86% | 94% |
| O=S(=O)(NCCCCN1CCC(c2noc3cc(F)ccc23)CC1)c1ccc(Br)cc1 [Compound 298, 4-Bromo-N-[4-[4-(6-fluoro-1,2-benzoxazol-3-yl)piperidin-1-yl]butyl]benzenesulphonamide] | 35% | 12% | 84% | 99% | -8% | 1% | 100% | -4% | 39% | 30% | 90% | 98% | 67% | 90% |
| O=S(=O)(NCCCCN1CCC(c2noc3cc(F)ccc23)CC1)c1csc2ccccc12 [Compound 313, N-[4-[4-(6-Fluoro-1,2-benzoxazol-3-yl)piperidin-1-yl]butyl]benzothiophene-3-sulphonamide] | 23% | -5% | 85% | 81% | 8% | 0% | 100% | -11% | 46% | 4% | 47% | 99% | 72% | 90% |
| O=S(=O)(NCCCCN1CCC(c2noc3cc(F)ccc23)CC1)c1cc2ccc(Cl)cc2s1 [Compound 314, 6-Chloro-N-[4-[4-(6-fluoro-1,2-benzoxazol-3-yl)piperidin-1-yl]butyl]benzothiophene-2-sulphonamide] | 50% | 9% | 86% | 110% | -30% | 1% | 100% | -2% | 30% | 5% | 50% | 100% | 75% | 93% |
| O=S(=O)(NCCCN1CCC(c2noc3cc(F)ccc23)CC1)c1ccc(F)c(Cl)c1 [Compound 331, 3-Chloro-4-fluoro-N-[3-[4-(6-fluoro-1,2-benzoxazol-3-yl)piperidin-1-yl]propyl]benzenesulphonamide] | 31% | 4% | 87% | 114% | -15% | 1% | 100% | -14% | 7% | 2% | 85% | 100% | 82% | 97% |
| N#Cc1cccc(S(=O)(=O)NCCCN2CCC(c3noc4cc(F)ccc34)CC2)c1 [Compound 338, 3-cyano-N-[3-[4-(6-fluoro-1,2-benzoxazol-3-yl)piperidin-1-yl]propyl]benzenesulphonamide] | 21% | 3% | 88% | 109% | -10% | 2% | 100% | -3% | 9% | 1% | 51% | 100% | 80% | 95% |
| O=S(=O)(NCCCN1CCC(c2noc3cc(F)ccc23)CC1)c1ccc2cn[nH]c2c1 [Compound 352, N-[3-[4-(6-Fluoro-1,2-benzoxazol-3-yl)piperidin-1-yl]propyl]-1H-indazole-6-sulphonamide] | 56% | 12% | 88% | 113% | -18% | 1% | 100% | -16% | 16% | 1% | 60% | 97% | 89% | 97% |
